Experimental findings from paper PMC6270420, “Antibacterial Activity of Salicylanilide 4-(Trifluoromethyl)benzoates” (Molecules, 2013) are described below.

≈ marks a conversion by molar mass, not a printed value. Read-outs that look alike come from different tables or passages of the source.

In one experiment the test system is Mtb. 7357/1988. Put plainly: microbe, parasite or virus in culture. The class given is cell-based. Conditions: Mycobacterium tuberculosis, read-out: MIC Mtb. 7357/1988.
The subject of the next experiment is Mtb. Praha 131 (XDR-TB). Put plainly: microbe, parasite or virus in culture. The class given is cell-based. Conditions: Mycobacterium tuberculosis, read-out: MIC Mtb. Praha 131 (XDR-TB).
The test system of experiment [1] is Mycobacterium tuberculosis 331/88 (H37Rv). Put plainly: Antimycobacterial MIC micromethod, Šula's medium. Format: cell-based.
For the next experiment, the system named is Mtb. 53/2009. Put plainly: microbe, parasite or virus in culture. Format: cell-based. The conditions noted are these: Mycobacterium tuberculosis, read-out: MIC Mtb. 53/2009.
The target in experiment [2] is T1, mycobacterial isocitrate lyase (ICL1, Rv0467) (Mycobacterium tuberculosis, UniProt P9WKK7).
T1 construct: His tag (from pET-28b(+)); made in house; host or cells: E. coli BL21(DE3), pET-28b(+) plasmid
T1 sequence (P9WKK7 1-428): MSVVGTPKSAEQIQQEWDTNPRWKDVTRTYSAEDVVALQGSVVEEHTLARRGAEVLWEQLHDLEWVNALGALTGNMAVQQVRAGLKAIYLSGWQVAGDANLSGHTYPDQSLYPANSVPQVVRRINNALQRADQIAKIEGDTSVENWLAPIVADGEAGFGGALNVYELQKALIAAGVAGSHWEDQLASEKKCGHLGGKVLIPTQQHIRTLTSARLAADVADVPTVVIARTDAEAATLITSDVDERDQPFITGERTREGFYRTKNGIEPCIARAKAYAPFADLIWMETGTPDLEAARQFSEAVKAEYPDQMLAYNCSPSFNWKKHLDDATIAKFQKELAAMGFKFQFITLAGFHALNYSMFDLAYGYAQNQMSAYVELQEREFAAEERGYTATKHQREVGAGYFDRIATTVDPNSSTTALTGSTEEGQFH
The experiment can be described thus: Isocitrate lyase inhibition assay (ICL1). The class given is biochemical, Mycobacterium tuberculosis H37Rv. Conditions: 10 μmol/L; read-out: % ICL inhibition at 10 μmol/L (± standard deviation).

Experiment [3] deals with Mycobacterium avium 330/88. The experiment can be described thus: Antimycobacterial MIC micromethod. The class given is cell-based.
For another experiment, the system named is HepG2 cells. Put plainly: Cytotoxicity evaluation (CellTiter 96 MTS). The class given is cell-based, human. Conditions: Homo sapiens, HepG2, 24 h, read-out: IC50 HepG2. In short, it runs like this: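 Human HepG2 cells (passages 21–24) seeded 1 × 10^4/well, treated next day with 0.01–20 µM compound (4-(trifluoromethyl)benzoic acid 10–4,000 µM), triplicates, 24 h at 37 °C. MTS reduction read at 490 nm after 2 h; IC50 = concentration cutting viability to 50% of control.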

The test system of experiment [4] is Staphylococcus aureus CCM 4516/08. The experiment can be described thus: Antibacterial microdilution broth method. The class given is cell-based. Conditions: read-out: MIC/IC90 S. aureus CCM 4516/08. In short, it runs like this: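 Mueller-Hinton broth pH 7.4; M07-A07-based microdilution; cpds in DMSO, final 500–0.49 […]; inoculum 0.5 McFarland; 35 °C, dark, humid, 24 and 48 h; MIC = ≥90% growth reduction vs control, visual + A540.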

A further experiment relates to Mtb. Praha 1. The experiment can be described thus: microbe, parasite or virus in culture. The class given is cell-based. Conditions: Mycobacterium tuberculosis, read-out: MIC Mtb. Praha 1.
The mark [5] stands for this setting: 336 h, 14 d, read-out: MIC Mtb. 331/88.
Setting [6] is: 504 h, 21 d, read-out: MIC Mtb. 331/88.
The mark [7] stands for this setting: time not stated, read-out: MIC against M. tuberculosis.

The term IC50 denotes the midpoint of a concentration-inhibition curve. As for `O=C(Oc1cc(Cl)ccc1C(=O)Nc1ccc(Br)cc1)c1ccc(C(F)(F)F)cc1` [1j], the MIC in the experiment with Mtb. 7357/1988 (336 h) is 2 µM (≈ 0.997 µg/mL); in the experiment with Mtb. 7357/1988 (504 h), 2 µM (≈ 0.997 µg/mL); with Mtb. Praha 131 (XDR-TB) (336 h), 1 µM (≈ 0.499 µg/mL); in the experiment on Mtb. Praha 131 (XDR-TB) (504 h), 2 µM (≈ 0.997 µg/mL); in experiment [1] (setting [5]) it was 2 µM (≈ 0.997 µg/mL); in [1] (setting [6]), 4 µM (≈ 1.99 µg/mL). Also, the MIC with Mtb. 53/2009 (336 h) was determined as 2 µM (≈ 0.997 µg/mL); in the experiment on Mtb. 53/2009 (504 h), 2 µM (≈ 0.997 µg/mL); in [3] (330/88, 336 h, 14 d), 8 µM (≈ 3.99 µg/mL); in experiment [3] (330/88, 504 h, 21 d), 8 µM (≈ 3.99 µg/mL); in [4] (CCM4516, 24 h), 0.49 µM (≈ 0.244 µg/mL); in experiment [4] (CCM4516, 48 h), 0.98 µM (≈ 0.489 µg/mL). Further, the MIC with Mtb. Praha 1 (336 h) and in the experiment with Mtb. Praha 1 (504 h) was 2 µM (≈ 0.997 µg/mL) each time. Moreover, the inhibition at 10 µM in [2] amounted to 14 ± 4%. Besides, in the experiment with HepG2 cells, the IC50 was found to be 4.82 µM.

Consider `O=C(Oc1ccc(Cl)cc1C(=O)Nc1ccc(C(F)(F)F)cc1)c1ccc(C(F)(F)F)cc1` [1o, 4-chloro-2-[4-(trifluoromethyl)phenylcarbamoyl]phenyl 4-(trifluoromethyl)benzoate], for which the MIC in the experiment on Mtb. 7357/1988 (336 h) worked out at 0.5 µM (≈ 0.244 µg/mL); in the experiment with Mtb. 7357/1988 (504 h), 1 µM (≈ 0.488 µg/mL); in the experiment with Mtb. Praha 131 (XDR-TB) (336 h), 0.5 µM (≈ 0.244 µg/mL); with Mtb. Praha 131 (XDR-TB) (504 h), 1 µM (≈ 0.488 µg/mL); in experiment [1] (setting [5]), 1 µM (≈ 0.488 µg/mL); in experiment [1] (setting [6]), 1 µM (≈ 0.488 µg/mL). Also, the MIC in experiment [1] (setting [7]) was 1 µM (≈ 0.488 µg/mL); with Mtb. 53/2009 (336 h) it was 1 µM (≈ 0.488 µg/mL); in the experiment with Mtb. 53/2009 (504 h), 1 µM (≈ 0.488 µg/mL); in experiment [3] (330/88, 336 h, 14 d) it was 1 µM (≈ 0.488 µg/mL); in experiment [3] (330/88, 504 h, 21 d), 4 µM (≈ 1.95 µg/mL); in [4] (CCM4516, 24 h), 3.9 µM (≈ 1.9 µg/mL). In addition, the MIC stood at 7.81 µM (≈ 3.81 µg/mL) in experiment [4] (CCM4516, 48 h); 0.5 µM (≈ 0.244 µg/mL) with Mtb. Praha 1 (336 h); 0.5 µM (≈ 0.244 µg/mL) in the experiment with Mtb. Praha 1 (504 h). Also, the inhibition at 10 µM in experiment [2] came out at 13 ± 1.2%. In the experiment with HepG2 cells, the IC50 worked out at 1.33 µM.

`O=C(Oc1ccc(Cl)cc1C(=O)Nc1ccc(Cl)c(Cl)c1)c1ccc(C(F)(F)F)cc1` [1e]: the MIC in the experiment with Mtb. 7357/1988 (336 h) turned out to be 1 µM (≈ 0.489 µg/mL); in the experiment on Mtb. 7357/1988 (504 h) it was 2 µM (≈ 0.977 µg/mL); with Mtb. Praha 131 (XDR-TB) (336 h) it was 2 µM (≈ 0.977 µg/mL); with Mtb. Praha 131 (XDR-TB) (504 h), 2 µM (≈ 0.977 µg/mL); in [1] (setting [5]), 1 µM (≈ 0.489 µg/mL); in [1] (setting [6]), 1 µM (≈ 0.489 µg/mL). For the same compound, the MIC is 1 µM (≈ 0.489 µg/mL) in [1] (setting [7]); 2 µM (≈ 0.977 µg/mL) in the experiment on Mtb. 53/2009 (336 h); 4 µM (≈ 1.95 µg/mL) with Mtb. 53/2009 (504 h); 4 µM (≈ 1.95 µg/mL) in experiment [3] (330/88, 336 h, 14 d); 4 µM (≈ 1.95 µg/mL) in experiment [3] (330/88, 504 h, 21 d); 0.49 µM (≈ 0.239 µg/mL) in experiment [4] (CCM4516, 24 h). For the same compound, the MIC in experiment [4] (CCM4516, 48 h) was 0.98 µM (≈ 0.479 µg/mL); in the experiment on Mtb. Praha 1 (336 h) it was 1 µM (≈ 0.489 µg/mL); in the experiment with Mtb. Praha 1 (504 h), 2 µM (≈ 0.977 µg/mL). In addition, in [2], the inhibition at 10 µM is 18 ± 1.5%. Also, in the experiment with HepG2 cells, the IC50 was determined as 3.13 µM.
